# From publication PMC7076174 (Frontiers in Oncology, 2020)
# pIC50: −log10 of the molar value.
# Experiments:
# GSK3α = test system: GSK3α; parameters: method as in PMID 23305709; conditions: cited from earlier work
# GSKβ = test system: GSKβ; parameters: method as in PMID 23305709; conditions: cited from earlier work
# [1] = Description: Lithium carbonate (lithium) 300 mg was administered orally three times a day (or two times daily for patients age ≥65 years) starting on day - 3 prior to cycle 1 and on day 1 of all subsequent cycles consisting of 28 days (Figure 1). The “lead-in” period prior to cycle 1 was designed to allow for correlative studies to investigate the effects of lithium on leukemic cell GSK3 activity and to ensure achievement of adequate serum lithium concentrations prior to tretinoin exposure. The target serum lithium concentration was the laboratory-defined therapeutic range of 0.6–1.0 mmol/L based on toxicity in humans for treatment of mood disorders. Dose adjustments were made based on the serum lithium concentration (Supplementary Figure 1). Dosing of tretinoin followed a “3+3” study design with three patients sequentially enrolled at each dose level ([13]). Tretinoin was administered orally at a dose of 22.5 mg/m^2/day (dose level 1) or 45 mg/m^2/day (dose level 2) in two divided doses, from days 1 to 7 and from days 15 to 21 of a 28-day cycle.
# GSK3 [2] = conditions: six patients with evaluable samples; CD34+ and/or CD117+ cells
# Experimental: Blood samples were collected at baseline, days 1, 8, and 30 and at the end of the study period. Specimens were processed only if ≥5% leukemic cells were present in the blood as assessed using morphologic criteria. […] Bone marrow was collected at baseline and end of study. Immunophenotyping was performed by multi-parameter flow cytometry using fluorochrome-labeled antibodies to CD11b, CD14, and CD15 as markers for monocytic and/or granulocytic differentiation ([19]–[22]). The stained samples were run on a BD Biosciences LSRII (San Jose, CA, USA) flow cytometer. Cells were concurrently stained for CD34, CD117, and CD38 for identification of the leukemic blast and stem cell populations (CD34+ CD38–). […] Phosphorylated Serine-9 GSK3β antibody was obtained from Cell Signaling Technologies (Beverly, MA, USA).
# GSK3 [3] = conditions: cited from earlier work
# [4] = test system: CD34+ CD38– AML stem cell population; conditions: tretinoin 0.5 μM, 6 days; in three samples
# Text: In order to study the separate effects of GSK3 inhibition or tretinoin on AML stem cells, we used previously obtained cryopreserved blood samples from the Eastern Cooperative Oncology Group (ECOG) tumor repository of newly diagnosed and untreated AML patients (independent of this trial) to conduct in vitro studies. […] Cryopreserved cells were thawed and cultured in RPMI 1640 media (Hyclone) containing 10% fetal bovine serum (Sigma-Aldrich, St. Louis, MO, USA) and 1% final concentration penicillin and streptomycin. Amphotericin B (0.5 μg/ml) and ciprofloxacin (10 μg/ml) were added to help eliminate fungal and mycoplasma contamination in the cell culture. Cells were treated with SB415285 (10 μM) obtained from Tocris (Bristol, UK), a laboratory-grade GSK3 inhibitor which competitively binds to the ATP binding site of GSK3 ([23]), and tretinoin (0.5 μM). […] After 6 days, immunophenotyping for the CD34+ CD38– AML stem cell population was performed by flow cytometry.
smiles,measurement,setting,value
O=C1NC(=O)C(c2cnc3ccccn23)=C1c1cn2c3c(cc(F)cc13)CN(C(=O)N1CCCCC1)CC2 [LY2090314],pIC50,GSK3α,8.82
same,pIC50,GSKβ,9.05
"O=C([O-])[O-].[Li+].[Li+] [lithium, Lithium carbonate]",Target serum lithium concentration (0.6–1.0 mmol/L) achieved,"[1]; oral lithium carbonate 300 mg 2–3 times daily, dose adjusted",achieved at least once in all nine patients
same,Serum lithium concentration at admission,"[1]; patient with delirium (DLT), third week of treatment, dose level 1",0.28 mmol/L
same,"Median increase in pGSK3β, change in mean fluorescence intensity (MFI) from baseline",GSK3 [2],"1,093 (range, 111–1,738)"
same,Lithium threshold concentration necessary in vivo to significantly inhibit GSK3,GSK3 [3],~ 0.8 mmol/L
CC1=C(/C=C/C(C)=C/C=C/C(C)=C/C(=O)O)C(C)(C)CCC1 [tretinoin],"Reduction of the CD34+ CD38– population, tretinoin alone vs combination with SB415285",[4],comparable reduction of the CD34+ CD38– population
